Data on 16 molecules can be found in ChEMBL document CHEMBL4177731, “Synthesis, in vitro α-glucosidase inhibitory activity and docking studies of novel chromone-isatin derivatives” (Bioorg Med Chem Lett, 2018).

Each structure is given as a SMILES string.

Usually IC50 stands for the concentration that gives 50% inhibition. Lower therefore signals greater potency.

A short description of the assay: Inhibition of Saccharomyces cerevisiae alpha-glucosidase pre-incubated for 15 mins before p-nitrophenyl alpha-D-glucopyranoside substrate addition and measured after 30 mins by spectrophotometry.
The molecule `O=C1/C(=N\N=C\c2coc3ccccc3c2=O)c2ccccc2N1Cc1cccc(F)c1` had an IC50 of 16 µM. This lies in the double-digit micromolar range.

The molecule `O=C1/C(=N\N=C\c2coc3cc(O)ccc3c2=O)c2ccccc2N1Cc1ccc(Br)cc1` yielded an IC50 of 3.18 µM.

`O=C1/C(=N\N=C\c2coc3ccccc3c2=O)c2ccccc2N1Cc1ccc(Br)cc1`: it took 8.17 µM to reach half-maximal inhibition (IC50).

The molecule `O=C1/C(=N\N=C\c2coc3ccccc3c2=O)c2ccccc2N1Cc1ccc(Cl)cc1` returned an IC50 of 16.6 µM.

Molecule `O=C1/C(=N\N=C\c2coc3cc(O)ccc3c2=O)c2ccccc2N1Cc1cccc(F)c1` displayed an IC50 of 4.17 µM.

For the molecule `O=C1/C(=N\N=C\c2coc3cc(O)ccc3c2=O)c2ccccc2N1Cc1ccc(F)cc1`, the IC50 amounted to 3.82 µM.

`O=C1/C(=N\N=C\c2coc3ccccc3c2=O)c2ccccc2N1Cc1ccccc1Cl` yielded a half-maximal inhibitory concentration (IC50) of 13.5 µM.

On to `O=C1/C(=N\N=C\c2coc3ccccc3c2=O)c2ccccc2N1Cc1ccccc1F`, for which the IC50 is 14 µM.

For the molecule `O=C1Nc2ccccc2/C1=N/N=C/c1coc2ccccc2c1=O`, inhibition was half-maximal at 16.2 µM (IC50).

`O=C1/C(=N\N=C\c2coc3cc(O)ccc3c2=O)c2ccccc2N1Cc1ccccc1F` showed an IC50 of 4.57 µM.

`O=C1/C(=N\N=C\c2coc3cc(O)ccc3c2=O)c2ccccc2N1Cc1ccc(Cl)cc1Cl` had an IC50 of 4.25 µM.

`O=C1/C(=N\N=C\c2coc3cc(O)ccc3c2=O)c2ccccc2N1Cc1ccccc1Cl`: the IC50 amounted to 5.51 µM. The IC50 values of the last two molecules are within 1.5-fold of each other.

As for `O=C1/C(=N\N=C\c2coc3cc(O)ccc3c2=O)c2ccccc2N1Cc1ccc(Cl)cc1`, the IC50 was determined as 3.9 µM.

The molecule `O=C1/C(=N\N=C\c2coc3ccccc3c2=O)c2ccccc2N1Cc1ccc(F)cc1` showed an IC50 of 9.8 µM.

Molecule `O=C1/C(=N\N=C\c2coc3cc(O)ccc3c2=O)c2ccccc2N1Cc1ccccc1Br` gave an IC50 of 4.73 µM.

Regarding `CN1C(=O)/C(=N\N=C\c2coc3ccccc3c2=O)c2ccccc21`, the IC50 is 11.8 µM.
